# Laboratory results taken from patent US20040254175A1, “Derivatives of phenoxy-n-'4-(isothiazolindin-1,1-dioxid-2yl)phenyl!-valerian-acid amide and other compounds as inhibitors of the coagulation factor xa in the treatment of thromboembolic diseases and tumors” (priority 2001, published 2004).
# pIC50: −log10 of the molar value. Where a name gives a salt, the structure may show the parent alone.
# Tests used:
# FXa = FXa (Homo sapiens, UniProt P00742); assay: Inhibition of factor Xa (FXa-IC50)
# Sequence of FXa (P00742 235-488 limits assumed): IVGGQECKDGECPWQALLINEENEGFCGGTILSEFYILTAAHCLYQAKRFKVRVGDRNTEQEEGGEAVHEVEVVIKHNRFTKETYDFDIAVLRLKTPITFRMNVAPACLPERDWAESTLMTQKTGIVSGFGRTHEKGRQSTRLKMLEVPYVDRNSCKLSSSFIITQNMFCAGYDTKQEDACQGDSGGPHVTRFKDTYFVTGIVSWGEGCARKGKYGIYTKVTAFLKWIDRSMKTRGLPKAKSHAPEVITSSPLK
# Sequence of FXa (P00742 41-179 partner limits assumed): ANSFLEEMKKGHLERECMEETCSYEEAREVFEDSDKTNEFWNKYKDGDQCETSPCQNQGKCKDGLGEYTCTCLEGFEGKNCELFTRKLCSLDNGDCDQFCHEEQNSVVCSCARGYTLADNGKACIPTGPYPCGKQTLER
# TF/FVIIa = TF/FVIIa (Homo sapiens, UniProt P08709); assay: Inhibition of TF/factor VIIa (TF/FVIIa-IC50)
# Sequence of TF/FVIIa (P08709 213-466 limits assumed): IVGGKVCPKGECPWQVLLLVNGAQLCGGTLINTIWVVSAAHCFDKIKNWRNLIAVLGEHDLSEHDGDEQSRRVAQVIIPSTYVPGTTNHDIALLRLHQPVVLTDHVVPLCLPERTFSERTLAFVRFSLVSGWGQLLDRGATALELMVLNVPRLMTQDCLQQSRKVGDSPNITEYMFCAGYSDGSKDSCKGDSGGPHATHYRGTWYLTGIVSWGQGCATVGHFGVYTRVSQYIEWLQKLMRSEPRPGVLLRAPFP
# Sequence of TF/FVIIa (P08709 61-212 partner limits assumed): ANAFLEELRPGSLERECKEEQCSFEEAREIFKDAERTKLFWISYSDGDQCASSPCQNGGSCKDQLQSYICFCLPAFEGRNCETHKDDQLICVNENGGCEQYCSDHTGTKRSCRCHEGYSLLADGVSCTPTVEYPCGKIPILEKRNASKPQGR
# Sequence of TF/FVIIa (P13726 33-295 partner): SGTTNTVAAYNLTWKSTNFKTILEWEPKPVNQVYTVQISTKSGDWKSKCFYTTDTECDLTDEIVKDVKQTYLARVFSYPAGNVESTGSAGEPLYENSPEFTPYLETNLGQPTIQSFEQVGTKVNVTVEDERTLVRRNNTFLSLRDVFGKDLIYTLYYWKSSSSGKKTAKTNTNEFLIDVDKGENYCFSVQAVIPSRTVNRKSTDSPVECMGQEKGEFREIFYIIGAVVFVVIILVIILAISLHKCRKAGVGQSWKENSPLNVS
pIC50 (FXa),pIC50 (TF/FVIIa),SMILES
6.46,6.35,"CCCC(Oc1cccc(C(=N)N)c1)C(=O)Nc1ccc(N2CCCS2(=O)=O)cc1 (stereo not shown) [AA, 2-(3-amidinophenoxy)-N-[4-(1,1-dioxoisothiazolidin-2-yl)phenyl]valeramide, acetate]"
6.31,6.06,"Cc1cc(NC(=O)C(Nc2cccc(CN)c2)c2ccccc2)ccc1N1CCCS1(=O)=O (stereo not shown) [BB, 2-(3-aminomethylphenylamino)-N-[4-(1,1-dioxoisothiazolidin-2-yl)-3-methylphenyl]-2-phenylacetamide, hydrochloride]"
